Results taken from patent US6461997B1, “Triazole sulfones having herbicidal activity” (Monsanto Technology LLC, priority 1999, dated 2002).

Experiments:
[1] = tested on: PANMI (wild proso millet); assay: Pre-emergence herbicidal activity, warm season; type: in vivo, Panicum miliaceum; conditions: GR80 = lowest tested rate (300, 100, 30, 10 g/ha) with 80% or greater inhibition; approx. 14 days after treating; 30/21° C.
How it was run: (§1)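 Activity is expressed as the rate giving 80% inhibition, with 300, 100, 30 and 10 g/ha typically tested. An asterisk marks activity short of 80% at the top rate. Warm-season grasses were held at 30/21 °C; cool-season blackgrass and wild buckwheat at 18/13 °C; scoring at about 14 days.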

[2] = tested on: SORHA (johnsongrass (seedling)); assay: Pre-emergence herbicidal activity, warm season; type: in vivo, Sorghum halepense; conditions: GR80 = lowest tested rate (300, 100, 30, 10 g/ha) with 80% or greater inhibition; approx. 14 days after treating; 30/21° C.
How it was run: as §1

[3] = tested on: SETFA (giant foxtail); assay: Pre-emergence herbicidal activity, warm season; type: in vivo, Setaria faberi; conditions: GR80 = lowest tested rate (300, 100, 30, 10 g/ha) with 80% or greater inhibition; approx. 14 days after treating; 30/21° C.
How it was run: as §1

[4] = tested on: PANDI (fall panicum); assay: Pre-emergence herbicidal activity, warm season; type: in vivo, Panicum dichotomiflorum; conditions: GR80 = lowest tested rate (300, 100, 30, 10 g/ha) with 80% or greater inhibition; approx. 14 days after treating; 30/21° C.
Description: (§2) Tables 5 to 8 summarize results of tests conducted as described below to determine the pre-emergence herbicidal activity, in the form of a GR80 value, of illustrative compounds of this invention. […] Compounds of the invention were typically applied at rates of 300, 100, 30, and 10 g/ha. Where herbicidal activity was evident but 80% inhibition was not achieved at the highest rate tested, an asterisk (*) is shown in the following tables.
(§3) The pre-emergence tests were conducted by the following procedure. Topsoil was sieved to pass through a 1.27 cm screen. Fertilizer was added to the topsoil and the mixture was then sterilized by heating. The topsoil mixture was placed in a pot and compacted to a depth of 1.0 to 1.25 cm from the top of the pot. Seeds of each of several monocotyledonous and dicotyledonous annual plant species were placed on top of the soil. Additional soil was subsequently placed over the seeds to level-fill the pot. A known amount of each test compound dissolved or suspended in an appropriate organic solvent was diluted with a 50:50 mix of acetone and water and applied to the surface of the soil. After treatment the plants were placed in a greenhouse where they received 0.64 cm of overhead irrigation. All subsequent watering consisted of a light overhead mist and/or subirrigation as needed for germination and growth. Tables 5 and 6 below relate to warm season plant species which were placed after pre-emergence treatment in a greenhouse with a 30/21° C. day/night temperature regime. Tables 7 and 8 below relates to cool season plant species placed after pre-emergence treatment in a greenhouse or growth chamber with an 18/13° C. day/night temperature regime.
(§4) Approximately 14 days after planting and treating, the plants were observed and herbicidal efficacy recorded as percent inhibition by comparison with untreated plants.
(§5) The plant species usually regarded as weeds which were utilized in the tests are identified in the tables below according to the following legend, in which “d” indicates a dicotyledonous species and “m” a monocotyledonous species. All monocotyledonous species included in the tests herein are grasses.

[5] = tested on: GALAP (catchweed bedstraw); assay: Pre-emergence herbicidal activity, cool season; type: in vivo, Galium aparine; conditions: lowest tested rate with 80% or greater inhibition; rates 300, 100, 30, 10 g/ha; about 14 days
How it was run: (§6)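 GR80 values derive from percent inhibition relative to untreated plants, read roughly 14 days after sowing and pre-emergence soil-surface treatment (compound in 50:50 acetone/water; rates typically 10, 30, 100, 300 g/ha). Warm-season weeds grew at 30/21° C day/night, cool-season ones at 18/13° C; an asterisk marks activity without reaching 80% at the highest rate.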

[6] = tested on: POLCO (wild buckwheat); assay: Pre-emergence herbicidal activity, cool season; type: in vivo, Polygonum convolvulus; conditions: lowest tested rate with 80% or greater inhibition; rates 300, 100, 30, 10 g/ha; about 14 days
How it was run: as §1

[7] = tested on: SINAR (wild mustard); assay: Pre-emergence herbicidal activity, cool season; type: in vivo, Sinapis arvensis; conditions: lowest tested rate with 80% or greater inhibition; rates 300, 100, 30, 10 g/ha; about 14 days
How it was run: as §6

[8] = tested on: VERPE (creeping speedwell); assay: Pre-emergence herbicidal activity, cool season; type: in vivo, Veronica persicaria; conditions: lowest tested rate with 80% or greater inhibition; rates 300, 100, 30, 10 g/ha; about 14 days
How it was run: as §6

[9] = tested on: SASKR (russian thistle); assay: Pre-emergence herbicidal activity, cool season; type: in vivo, Salsola kali; conditions: lowest tested rate with 80% or greater inhibition; rates 300, 100, 30, 10 g/ha; about 14 days
How it was run: as §6

[10] = tested on: STEME (common chickweed); assay: Pre-emergence herbicidal activity, cool season; type: in vivo, Stellaria media; conditions: lowest tested rate with 80% or greater inhibition; rates 300, 100, 30, 10 g/ha; about 14 days
How it was run: as §6

[11] = tested on: LAMPU (purple deadnettle); assay: Pre-emergence herbicidal activity, cool season; type: in vivo, Lamium purpureum; conditions: lowest tested rate with 80% or greater inhibition; rates 300, 100, 30, 10 g/ha; about 14 days
How it was run: as §6

[12] = tested on: SETVI (green foxtail); assay: Pre-emergence herbicidal activity, cool season; type: in vivo, Setaria viridis; conditions: GR80 = lowest tested rate (300, 100, 30, 10 g/ha) with 80% or greater inhibition; approx. 14 days after treating; 18/13° C.
How it was run: as §6

[13] = tested on: AGSST (creeping bentgrass); assay: Pre-emergence herbicidal activity, cool season; type: in vivo, Agrostis stolonifera; conditions: GR80 = lowest tested rate (300, 100, 30, 10 g/ha) with 80% or greater inhibition; approx. 14 days after treating; 18/13° C.
How it was run: as §6

[14] = tested on: CHEAL (common lambsquarters); assay: Pre-emergence herbicidal activity, warm season; type: in vivo, Chenopodium album; conditions: GR80 = lowest tested rate (300, 100, 30, 10 g/ha) with 80% or greater inhibition; approx. 14 days after treating; 30/21° C.
How it was run: as §6

[15] = tested on: POROL (common purslane); assay: Pre-emergence herbicidal activity, warm season; type: in vivo, Portulaca oleracea; conditions: GR80 = lowest tested rate (300, 100, 30, 10 g/ha) with 80% or greater inhibition; approx. 14 days after treating; 30/21° C.
How it was run: as §6

[16] = tested on: ECHCG (barnyardgrass); assay: Pre-emergence herbicidal activity, warm season; type: in vivo, Echinochloa crus-galli; conditions: GR80 = lowest tested rate (300, 100, 30, 10 g/ha) with 80% or greater inhibition; approx. 14 days after treating; 30/21° C.
How it was run: as §1

[17] = tested on: SORVU (shattercane); assay: Pre-emergence herbicidal activity, warm season; type: in vivo, Sorghum vulgare; conditions: GR80 = lowest tested rate (300, 100, 30, 10 g/ha) with 80% or greater inhibition; approx. 14 days after treating; 30/21° C.
Description: as §2, §3, §4, §5

[18] = tested on: BRAPP (broadleaf signalgrass); assay: Pre-emergence herbicidal activity, warm season; type: in vivo, Brachiaria platyphylla; conditions: GR80 = lowest tested rate (300, 100, 30, 10 g/ha) with 80% or greater inhibition; approx. 14 days after treating; 30/21° C.
How it was run: as §1

[19] = tested on: DIGSA (large crabgrass); assay: Pre-emergence herbicidal activity, warm season; type: in vivo, Digitaria sanguinalis; conditions: GR80 = lowest tested rate (300, 100, 30, 10 g/ha) with 80% or greater inhibition; approx. 14 days after treating; 30/21° C.
How it was run: as §1

[20] = tested on: LOLMG (annual ryegrass); assay: Pre-emergence herbicidal activity, cool season; type: in vivo, Lolium multiflorum; conditions: GR80 = lowest tested rate (300, 100, 30, 10 g/ha) with 80% or greater inhibition; approx. 14 days after treating; 18/13° C.
Description: as §2, §3, §4, §5

[21] = tested on: BROTE (downy brome); assay: Pre-emergence herbicidal activity, cool season; type: in vivo, Bromus tectorum; conditions: GR80 = lowest tested rate (300, 100, 30, 10 g/ha) with 80% or greater inhibition; approx. 14 days after treating; 18/13° C.
Description: as §2, §3, §4, §5

[22] = tested on: AMARE (redroot pigweed); assay: Pre-emergence herbicidal activity, warm season; type: in vivo, Amaranthus retroflexus; conditions: GR80 = lowest tested rate (300, 100, 30, 10 g/ha) with 80% or greater inhibition; approx. 14 days after treating; 30/21° C.
Description: as §2, §3, §4, §5

[23] = tested on: ALOMY (blackgrass); assay: Pre-emergence herbicidal activity, cool season; type: in vivo, Alopecurus myosuroides; conditions: GR80 = lowest tested rate (300, 100, 30, 10 g/ha) with 80% or greater inhibition; approx. 14 days after treating; 18/13° C.
How it was run: as §1

[24] = tested on: ABUTH (velvetleaf); assay: Pre-emergence herbicidal activity, warm season; type: in vivo, Abutilon theophrasti; conditions: GR80 = lowest tested rate (300, 100, 30, 10 g/ha) with 80% or greater inhibition; approx. 14 days after treating; 30/21° C.
Description: as §2, §3, §4, §5

CCN(CC)C(=S)n1cnc(S(=O)(=O)C(F)(F)Br)n1 [Example 46]
[empty]: Pre-emergence activity GR80, SINAR [7]
300 g/ha: Pre-emergence activity (GR80) PANMI [1] | Pre-emergence activity (GR80) SORHA [2] | Pre-emergence activity (GR80) SETFA [3] | Pre-emergence activity (GR80) PANDI [4] | Pre-emergence activity GR80, GALAP [5] | Pre-emergence activity GR80, POLCO [6] | Pre-emergence activity GR80, SASKR [9] | Pre-emergence activity GR80, STEME [10] | Pre-emergence activity (GR80) SETVI [12] | Pre-emergence activity (GR80) AGSST [13]
100 g/ha: Pre-emergence activity GR80, VERPE [8] | Pre-emergence activity GR80, LAMPU [11]

CCCN(CC)C(=O)n1cnc(S(=O)(=O)C(F)(F)C(F)(F)Br)n1 [Example 75]
30 g/ha: Pre-emergence activity GR80, SINAR [7] | Pre-emergence activity GR80, STEME [10] | Pre-emergence activity GR80, LAMPU [11] | Pre-emergence activity (GR80) SETVI [12] | Pre-emergence activity (GR80) AGSST [13]
300 g/ha: Pre-emergence activity (GR80) CHEAL [14] | Pre-emergence activity (GR80) POROL [15] | Pre-emergence activity (GR80) SORHA [2] | Pre-emergence activity (GR80) SETFA [3] | Pre-emergence activity (GR80) SORVU [17] | Pre-emergence activity (GR80) BRAPP [18] | Pre-emergence activity (GR80) DIGSA [19] | Pre-emergence activity GR80, GALAP [5] | Pre-emergence activity (GR80) LOLMG [20] | Pre-emergence activity (GR80) BROTE [21]
[empty]: Pre-emergence activity GR80, POLCO [6]
10 g/ha: Pre-emergence activity GR80, VERPE [8] | Pre-emergence activity GR80, SASKR [9]
100 g/ha: Pre-emergence activity (GR80) ECHCG [16] | Pre-emergence activity (GR80) PANMI [1]

COCCN(C)C(=O)n1cnc(S(=O)(=O)C(F)(F)Cl)n1 [Example 88]
300 g/ha: Pre-emergence activity (GR80) PANMI [1] | Pre-emergence activity (GR80) DIGSA [19] | Pre-emergence activity GR80, POLCO [6] | Pre-emergence activity (GR80) ALOMY [23] | Pre-emergence activity (GR80) LOLMG [20] | Pre-emergence activity (GR80) BROTE [21]
10 g/ha: Pre-emergence activity GR80, STEME [10] | Pre-emergence activity GR80, LAMPU [11]
100 g/ha: Pre-emergence activity (GR80) AMARE [22] | Pre-emergence activity GR80, GALAP [5] | Pre-emergence activity (GR80) SETVI [12] | Pre-emergence activity (GR80) AGSST [13]
30 g/ha: Pre-emergence activity GR80, SINAR [7] | Pre-emergence activity GR80, VERPE [8] | Pre-emergence activity GR80, SASKR [9]

CN(C(=O)n1cnc(S(=O)(=O)C(F)(F)Cl)n1)C1CCCCC1 [Example 91]
300 g/ha: Pre-emergence activity (GR80) ABUTH [24] | Pre-emergence activity (GR80) SORVU [17] | Pre-emergence activity (GR80) ALOMY [23] | Pre-emergence activity (GR80) SETVI [12] | Pre-emergence activity (GR80) LOLMG [20] | Pre-emergence activity (GR80) BROTE [21]
30 g/ha: Pre-emergence activity GR80, SASKR [9] | Pre-emergence activity GR80, STEME [10] | Pre-emergence activity GR80, LAMPU [11]
10 g/ha: Pre-emergence activity GR80, SINAR [7] | Pre-emergence activity GR80, VERPE [8]
100 g/ha: Pre-emergence activity (GR80) PANMI [1] | Pre-emergence activity GR80, GALAP [5] | Pre-emergence activity GR80, POLCO [6] | Pre-emergence activity (GR80) AGSST [13]
